Assay [1] addresses T1, Corticotropin-releasing factor receptor 2/Corticotropin-releasing factor-binding protein (Homo sapiens, UniProt P24387+Q13324).
T1 sequence (Q13324 whole entry): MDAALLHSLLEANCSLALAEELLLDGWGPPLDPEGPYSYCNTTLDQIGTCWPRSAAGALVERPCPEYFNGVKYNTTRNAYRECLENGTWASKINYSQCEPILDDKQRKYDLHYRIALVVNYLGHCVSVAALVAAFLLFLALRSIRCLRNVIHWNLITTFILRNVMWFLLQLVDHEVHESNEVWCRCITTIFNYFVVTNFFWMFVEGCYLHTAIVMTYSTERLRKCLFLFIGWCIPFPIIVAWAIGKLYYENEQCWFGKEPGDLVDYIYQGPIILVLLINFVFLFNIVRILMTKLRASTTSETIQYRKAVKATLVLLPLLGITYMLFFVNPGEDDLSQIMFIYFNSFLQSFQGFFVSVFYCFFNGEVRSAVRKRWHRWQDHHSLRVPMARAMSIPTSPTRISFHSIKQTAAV
T1 sequence (P24387 whole entry): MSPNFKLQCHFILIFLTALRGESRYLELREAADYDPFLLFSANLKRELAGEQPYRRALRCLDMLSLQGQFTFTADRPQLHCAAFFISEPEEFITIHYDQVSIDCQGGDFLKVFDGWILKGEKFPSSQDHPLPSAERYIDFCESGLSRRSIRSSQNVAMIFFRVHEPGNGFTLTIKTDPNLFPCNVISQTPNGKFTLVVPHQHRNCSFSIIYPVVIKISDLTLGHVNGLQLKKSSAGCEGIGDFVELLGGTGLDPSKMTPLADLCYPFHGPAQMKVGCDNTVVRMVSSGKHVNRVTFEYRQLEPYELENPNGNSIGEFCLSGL
In words: Dose Response confirmation of uHTS hits for small molecule antagonists of the CRF-binding protein and CRF-R2 receptor complex. Format: functional. Conditions: read-out: IC50_Mean.

Assay [2] deals with T1, Corticotropin-releasing factor receptor 2/Corticotropin-releasing factor-binding protein. In words: activators of CRF receptor 2 with binding protein – uHTS hits, confirmation (AID 602473). The assay is classed as functional. As to conditions: read-out: EC50_Mean.
A short description of assay [3]: blockers of CRF-binding protein–CRF-R2 complex – cell-based, uHTS hits, 384-well, dose response (AID 651639). As to conditions: read-out: IC50_Mean. Format: functional, Homo sapiens.
In the next assay the target is T2, Caspase-3 (Homo sapiens, UniProt P42574).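 Note: Dose-response selectivity test against caspase-3 for candidate inhibitors of sentrin-specific proteases (SENPs).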
T2 sequence (P42574 whole entry): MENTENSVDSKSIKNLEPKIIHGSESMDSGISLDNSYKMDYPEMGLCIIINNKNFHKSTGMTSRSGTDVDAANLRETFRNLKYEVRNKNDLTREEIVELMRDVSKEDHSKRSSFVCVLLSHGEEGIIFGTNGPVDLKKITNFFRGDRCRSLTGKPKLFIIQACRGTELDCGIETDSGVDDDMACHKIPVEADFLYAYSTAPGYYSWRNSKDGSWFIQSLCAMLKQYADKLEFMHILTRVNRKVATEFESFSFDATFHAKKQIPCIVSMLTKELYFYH
Format: functional.

The target in assay [4] is T3, Sentrin-specific protease 7 (Homo sapiens, UniProt Q9BQF6).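 Note: Luminescence-based dose-response confirmation of ultra-high-throughput screening hits, measuring inhibition of SENP7.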
T3 sequence (Q9BQF6 whole entry): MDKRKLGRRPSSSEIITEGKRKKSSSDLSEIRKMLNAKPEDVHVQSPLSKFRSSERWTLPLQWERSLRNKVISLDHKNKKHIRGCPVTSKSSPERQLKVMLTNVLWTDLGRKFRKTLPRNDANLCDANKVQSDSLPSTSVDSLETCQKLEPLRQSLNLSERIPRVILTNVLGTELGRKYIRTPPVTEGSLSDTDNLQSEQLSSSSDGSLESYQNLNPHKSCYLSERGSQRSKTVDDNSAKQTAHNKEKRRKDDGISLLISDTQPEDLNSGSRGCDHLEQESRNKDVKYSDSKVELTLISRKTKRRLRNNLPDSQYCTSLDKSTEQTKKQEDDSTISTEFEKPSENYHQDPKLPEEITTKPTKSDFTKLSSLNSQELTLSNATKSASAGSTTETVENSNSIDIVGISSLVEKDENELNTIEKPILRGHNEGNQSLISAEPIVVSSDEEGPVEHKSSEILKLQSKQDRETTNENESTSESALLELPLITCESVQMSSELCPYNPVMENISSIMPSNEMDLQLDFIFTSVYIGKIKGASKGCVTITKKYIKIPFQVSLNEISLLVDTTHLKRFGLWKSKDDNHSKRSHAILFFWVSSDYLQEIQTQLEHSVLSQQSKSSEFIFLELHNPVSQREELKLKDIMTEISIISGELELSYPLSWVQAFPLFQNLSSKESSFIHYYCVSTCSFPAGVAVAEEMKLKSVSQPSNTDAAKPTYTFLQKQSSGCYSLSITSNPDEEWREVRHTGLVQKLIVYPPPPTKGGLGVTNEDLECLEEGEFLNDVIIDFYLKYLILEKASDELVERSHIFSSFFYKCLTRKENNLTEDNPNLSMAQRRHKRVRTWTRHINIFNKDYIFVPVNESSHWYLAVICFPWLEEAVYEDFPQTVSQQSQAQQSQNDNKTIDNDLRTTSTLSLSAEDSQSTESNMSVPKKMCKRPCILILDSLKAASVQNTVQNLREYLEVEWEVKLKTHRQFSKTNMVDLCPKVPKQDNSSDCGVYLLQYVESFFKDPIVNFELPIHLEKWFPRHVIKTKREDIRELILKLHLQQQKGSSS
Format: functional.

Assay [5] addresses T4, Sentrin-specific protease 6 (Homo sapiens, UniProt Q9GZR1).
T4 sequence (Q9GZR1 whole entry): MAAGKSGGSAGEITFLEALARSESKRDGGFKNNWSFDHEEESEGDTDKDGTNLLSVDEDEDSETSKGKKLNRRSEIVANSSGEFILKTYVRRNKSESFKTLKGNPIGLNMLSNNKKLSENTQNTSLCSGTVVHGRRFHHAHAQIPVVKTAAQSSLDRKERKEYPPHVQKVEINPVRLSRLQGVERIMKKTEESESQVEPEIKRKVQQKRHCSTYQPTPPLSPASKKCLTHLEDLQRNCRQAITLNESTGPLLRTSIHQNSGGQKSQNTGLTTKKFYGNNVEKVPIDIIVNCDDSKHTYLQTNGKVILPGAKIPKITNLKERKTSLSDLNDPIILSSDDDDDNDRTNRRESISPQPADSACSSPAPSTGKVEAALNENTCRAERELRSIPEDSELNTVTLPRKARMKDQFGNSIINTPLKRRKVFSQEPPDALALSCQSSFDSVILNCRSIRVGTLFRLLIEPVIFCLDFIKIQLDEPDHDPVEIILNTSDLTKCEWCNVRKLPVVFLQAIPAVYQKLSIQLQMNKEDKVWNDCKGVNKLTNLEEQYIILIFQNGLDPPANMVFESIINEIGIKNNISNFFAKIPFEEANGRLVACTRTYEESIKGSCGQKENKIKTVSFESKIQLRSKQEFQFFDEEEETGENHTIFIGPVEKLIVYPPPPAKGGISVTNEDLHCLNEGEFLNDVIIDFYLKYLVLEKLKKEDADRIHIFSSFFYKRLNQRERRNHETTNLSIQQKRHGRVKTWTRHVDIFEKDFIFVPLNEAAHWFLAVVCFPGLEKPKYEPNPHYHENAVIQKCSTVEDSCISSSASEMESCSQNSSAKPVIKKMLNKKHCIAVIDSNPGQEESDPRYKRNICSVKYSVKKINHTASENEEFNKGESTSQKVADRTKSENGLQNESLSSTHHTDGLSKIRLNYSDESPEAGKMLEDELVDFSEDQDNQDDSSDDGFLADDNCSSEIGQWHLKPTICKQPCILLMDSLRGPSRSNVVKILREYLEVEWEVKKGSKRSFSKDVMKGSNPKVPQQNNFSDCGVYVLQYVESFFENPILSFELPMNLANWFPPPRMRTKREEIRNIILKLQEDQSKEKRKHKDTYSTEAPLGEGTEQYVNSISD
The assay is classed as functional.

The target in assay [6] is T5, Sentrin-specific protease 8 (Homo sapiens, UniProt Q96LD8).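 Note: luminescence read-out of SENP8 inhibition, dose-response confirmation following an ultra-high-throughput screen.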
T5 sequence (Q96LD8 whole entry): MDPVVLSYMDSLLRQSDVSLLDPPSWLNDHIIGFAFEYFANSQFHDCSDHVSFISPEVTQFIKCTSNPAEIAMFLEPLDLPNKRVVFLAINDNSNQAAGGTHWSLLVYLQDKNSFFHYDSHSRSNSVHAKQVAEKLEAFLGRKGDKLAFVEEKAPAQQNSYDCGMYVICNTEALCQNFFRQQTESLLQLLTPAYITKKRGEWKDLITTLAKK
The assay is classed as functional.

Assay [7] in a line: inhibition of ARNT PAS-B/TACC3 complex formation – biochemical, AlphaScreen, cherry-picked samples, confirmation (AID 651703).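 Note: His-tagged ARNT PAS-B domain paired with GST-TACC3 E629A dimer coactivator fragment; potency of inhibitors that break up the complex and lower AlphaScreen signal.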 The assay is classed as functional, Homo sapiens.
Assay [8] is described as follows: viability of PTEN-deleted HCT116 cells – cell-based, HCT116 PTEN knockout, dose response (AID 1047).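 Note: HCT116 colon tumor cells with PTEN knocked out; cells exposed to compound for 60 hours before readout; potency for loss of cell viability measured by luminescence.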 The assay is classed as functional.
Assay [9] is described as follows: viability of HCT116 lacking mutant beta-catenin – cell-based, human colon tumor, dose response (AID 1045).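 Note: HCT116 colon tumor cells with beta catenin knocked out; cells exposed to compound for 60 hours.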 The assay is classed as functional.
Another assay addresses Large T antigen (Simian virus 40, UniProt P03070). Format: functional, Betapolyomavirus macacae.
In assay [10] the target is T6, Rac GTPase-activating protein 1 (Homo sapiens, UniProt Q9H0H5).
T6 sequence (Q9H0H5 whole entry): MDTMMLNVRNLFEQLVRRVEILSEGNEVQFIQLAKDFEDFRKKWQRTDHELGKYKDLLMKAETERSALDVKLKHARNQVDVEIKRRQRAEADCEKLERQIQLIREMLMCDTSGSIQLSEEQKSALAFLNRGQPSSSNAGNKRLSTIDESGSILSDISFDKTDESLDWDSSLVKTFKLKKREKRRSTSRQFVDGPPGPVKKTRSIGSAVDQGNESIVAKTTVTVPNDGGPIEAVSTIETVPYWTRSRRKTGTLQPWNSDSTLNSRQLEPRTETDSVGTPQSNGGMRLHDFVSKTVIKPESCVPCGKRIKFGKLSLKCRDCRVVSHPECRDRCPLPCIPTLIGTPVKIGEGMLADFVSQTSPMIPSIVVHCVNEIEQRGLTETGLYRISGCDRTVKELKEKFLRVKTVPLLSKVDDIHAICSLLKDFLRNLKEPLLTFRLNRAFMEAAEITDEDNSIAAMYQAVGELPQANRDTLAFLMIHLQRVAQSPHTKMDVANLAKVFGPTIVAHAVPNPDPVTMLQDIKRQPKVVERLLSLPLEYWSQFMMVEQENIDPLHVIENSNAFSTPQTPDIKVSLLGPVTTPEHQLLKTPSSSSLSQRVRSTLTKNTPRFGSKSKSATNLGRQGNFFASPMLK
In words: blockers of MgcRacGAP-driven Rac1 GTP hydrolysis – biochemical, ADP Hunter fluorescence, primary and confirmatory, confirmation (AID 624330). Format: functional.

Assay [11] relates to HEK293. Description: inhibition of NOD1-driven NF-kB reporter – cell-based, luminescence, uHTS, primary screen (AID 1578). Format: functional. As to conditions: Homo sapiens.
The test system of assay [12] is HEK293. In words: cells. Conditions: Homo sapiens. Format: functional, cell-based.
The test system of assay [13] is HEK293. In words: cells. Format: functional, cell-based. Conditions: Homo sapiens. This is another data set of the same source.
Assay [14] addresses Nucleotide-binding oligomerization domain-containing protein 2 (Homo sapiens, UniProt Q9HC29). Description: inhibition of NOD2-driven NF-kB reporter – cell-based, luminescence, uHTS, HEK293 (AID 1566). The assay is classed as functional.
Assay [15] relates to HEK293. Description: NOD2 signaling inhibitors in MDP-stimulated cells, cell-based, uHTS, luminescence (AID 2001). The assay is classed as functional. As to conditions: Homo sapiens.
Assay [16] has as its system HEK293. Description: cells. Format: functional, cell-based. Conditions: Homo sapiens. The source holds these as a separate data set.
Assay [17] deals with T7, Fatty acid synthase (Homo sapiens, UniProt P49327). Description: inhibition of human FAS-TE enzyme activity – biochemical, endpoint fluorescence intensity, uHTS hits, dose response (AID 624327).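 Note: fluorescence from hydrolysis of an O-methyl fluorescein acyl ester substrate by the enzyme.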 The assay is classed as functional.
Assay [18] addresses T7, Fatty acid synthase. Description: inhibition of human FAS-TE enzyme activity – biochemical, kinetic fluorescence intensity, dose response (AID 624326).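 Note: rate of fluorescence rise from hydrolysis of a fluorogenic O-methyl fluorescein ester substrate.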 The assay is classed as functional.

Calls of active or inactive are those of the source.

T7 sequence (P49327 whole entry): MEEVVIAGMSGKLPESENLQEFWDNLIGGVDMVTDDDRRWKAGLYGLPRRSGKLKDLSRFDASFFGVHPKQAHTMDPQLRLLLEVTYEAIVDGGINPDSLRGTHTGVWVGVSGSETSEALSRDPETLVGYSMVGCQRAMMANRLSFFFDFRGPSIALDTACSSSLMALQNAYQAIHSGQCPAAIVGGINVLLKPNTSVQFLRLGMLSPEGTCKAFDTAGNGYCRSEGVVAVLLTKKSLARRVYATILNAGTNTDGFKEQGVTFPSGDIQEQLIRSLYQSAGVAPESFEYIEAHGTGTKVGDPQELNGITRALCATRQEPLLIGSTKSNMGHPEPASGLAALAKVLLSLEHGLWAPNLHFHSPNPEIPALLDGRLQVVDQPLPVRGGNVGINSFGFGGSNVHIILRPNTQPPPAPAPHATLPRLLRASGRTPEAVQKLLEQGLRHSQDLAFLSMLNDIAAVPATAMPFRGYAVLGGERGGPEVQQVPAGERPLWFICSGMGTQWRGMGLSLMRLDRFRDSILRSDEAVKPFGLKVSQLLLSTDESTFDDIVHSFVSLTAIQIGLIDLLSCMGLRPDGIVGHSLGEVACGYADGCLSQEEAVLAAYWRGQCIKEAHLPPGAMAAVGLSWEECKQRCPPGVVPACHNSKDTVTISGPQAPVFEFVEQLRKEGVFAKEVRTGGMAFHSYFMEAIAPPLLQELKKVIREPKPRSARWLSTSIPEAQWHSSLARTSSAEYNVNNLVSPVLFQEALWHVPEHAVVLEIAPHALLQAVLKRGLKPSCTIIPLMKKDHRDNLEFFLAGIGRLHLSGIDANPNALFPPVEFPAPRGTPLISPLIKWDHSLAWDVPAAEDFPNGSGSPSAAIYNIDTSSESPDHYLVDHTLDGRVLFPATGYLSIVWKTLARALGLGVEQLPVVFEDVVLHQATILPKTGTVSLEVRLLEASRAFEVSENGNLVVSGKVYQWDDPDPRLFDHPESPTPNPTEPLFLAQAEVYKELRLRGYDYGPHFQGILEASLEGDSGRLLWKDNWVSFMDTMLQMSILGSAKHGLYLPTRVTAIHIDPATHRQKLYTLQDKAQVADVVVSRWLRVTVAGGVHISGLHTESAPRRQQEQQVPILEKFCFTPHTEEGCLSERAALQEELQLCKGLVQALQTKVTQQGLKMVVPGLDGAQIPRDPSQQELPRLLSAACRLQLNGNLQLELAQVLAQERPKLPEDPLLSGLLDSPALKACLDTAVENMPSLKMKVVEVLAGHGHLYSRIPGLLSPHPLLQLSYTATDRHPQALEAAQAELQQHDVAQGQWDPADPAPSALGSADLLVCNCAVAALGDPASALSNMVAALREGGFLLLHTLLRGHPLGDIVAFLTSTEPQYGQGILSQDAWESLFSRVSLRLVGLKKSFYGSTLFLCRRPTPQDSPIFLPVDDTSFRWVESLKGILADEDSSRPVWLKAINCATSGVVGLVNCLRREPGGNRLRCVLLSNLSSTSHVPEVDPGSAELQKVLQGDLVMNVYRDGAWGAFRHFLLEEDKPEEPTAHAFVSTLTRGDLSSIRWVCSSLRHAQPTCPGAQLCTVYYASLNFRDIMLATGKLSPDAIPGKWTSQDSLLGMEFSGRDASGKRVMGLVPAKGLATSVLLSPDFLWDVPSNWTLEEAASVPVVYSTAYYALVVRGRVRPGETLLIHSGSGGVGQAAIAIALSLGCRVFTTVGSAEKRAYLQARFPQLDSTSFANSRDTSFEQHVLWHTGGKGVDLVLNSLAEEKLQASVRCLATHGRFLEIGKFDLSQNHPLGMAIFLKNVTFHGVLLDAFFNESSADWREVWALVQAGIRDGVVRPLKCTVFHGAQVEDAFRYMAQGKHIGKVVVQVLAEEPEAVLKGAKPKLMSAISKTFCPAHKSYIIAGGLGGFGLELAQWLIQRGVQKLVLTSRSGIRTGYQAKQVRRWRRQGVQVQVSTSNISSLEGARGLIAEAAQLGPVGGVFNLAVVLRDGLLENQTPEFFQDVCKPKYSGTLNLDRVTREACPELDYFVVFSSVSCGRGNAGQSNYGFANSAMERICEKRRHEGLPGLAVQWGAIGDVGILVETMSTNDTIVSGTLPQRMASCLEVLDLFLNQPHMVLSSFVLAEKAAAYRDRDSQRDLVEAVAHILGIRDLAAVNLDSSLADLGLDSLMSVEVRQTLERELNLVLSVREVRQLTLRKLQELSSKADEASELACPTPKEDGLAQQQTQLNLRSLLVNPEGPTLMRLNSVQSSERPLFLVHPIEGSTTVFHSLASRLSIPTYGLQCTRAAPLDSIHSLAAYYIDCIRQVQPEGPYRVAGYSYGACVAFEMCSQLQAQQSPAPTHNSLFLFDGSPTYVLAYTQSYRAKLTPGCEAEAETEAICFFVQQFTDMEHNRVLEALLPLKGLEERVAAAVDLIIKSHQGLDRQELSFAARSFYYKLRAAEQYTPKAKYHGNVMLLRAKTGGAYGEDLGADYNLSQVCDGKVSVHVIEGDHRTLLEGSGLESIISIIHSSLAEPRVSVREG
Sequence of Nucleotide-binding oligomerization domain-containing protein 2 (Q9HC29 whole entry, the tested form may be a part): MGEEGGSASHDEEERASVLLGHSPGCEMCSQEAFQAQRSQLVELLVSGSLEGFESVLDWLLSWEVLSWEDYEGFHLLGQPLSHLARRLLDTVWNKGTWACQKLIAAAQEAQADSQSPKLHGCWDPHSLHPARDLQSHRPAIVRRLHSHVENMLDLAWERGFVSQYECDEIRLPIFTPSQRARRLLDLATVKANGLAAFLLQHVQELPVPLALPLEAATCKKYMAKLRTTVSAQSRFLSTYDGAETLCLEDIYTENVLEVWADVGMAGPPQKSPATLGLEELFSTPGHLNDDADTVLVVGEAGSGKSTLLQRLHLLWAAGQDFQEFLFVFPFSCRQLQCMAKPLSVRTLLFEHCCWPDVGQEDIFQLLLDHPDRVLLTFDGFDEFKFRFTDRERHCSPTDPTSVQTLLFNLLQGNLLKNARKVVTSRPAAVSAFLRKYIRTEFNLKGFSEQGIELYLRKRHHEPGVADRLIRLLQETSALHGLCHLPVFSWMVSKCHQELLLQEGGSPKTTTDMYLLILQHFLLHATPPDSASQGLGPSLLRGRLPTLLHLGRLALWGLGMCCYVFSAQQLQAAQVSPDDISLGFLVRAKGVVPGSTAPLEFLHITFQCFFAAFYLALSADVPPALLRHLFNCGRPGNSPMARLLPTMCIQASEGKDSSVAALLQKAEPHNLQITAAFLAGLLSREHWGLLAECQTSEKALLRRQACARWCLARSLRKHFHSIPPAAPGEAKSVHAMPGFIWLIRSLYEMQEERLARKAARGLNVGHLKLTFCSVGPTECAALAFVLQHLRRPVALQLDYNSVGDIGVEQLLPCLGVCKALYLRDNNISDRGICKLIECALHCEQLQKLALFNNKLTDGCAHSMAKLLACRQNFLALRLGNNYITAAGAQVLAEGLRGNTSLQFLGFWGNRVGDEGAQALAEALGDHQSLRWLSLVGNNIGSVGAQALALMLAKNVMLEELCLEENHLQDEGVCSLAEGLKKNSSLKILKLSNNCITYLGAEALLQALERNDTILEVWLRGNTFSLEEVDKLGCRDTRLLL
Sequence of Large T antigen (P03070 whole entry): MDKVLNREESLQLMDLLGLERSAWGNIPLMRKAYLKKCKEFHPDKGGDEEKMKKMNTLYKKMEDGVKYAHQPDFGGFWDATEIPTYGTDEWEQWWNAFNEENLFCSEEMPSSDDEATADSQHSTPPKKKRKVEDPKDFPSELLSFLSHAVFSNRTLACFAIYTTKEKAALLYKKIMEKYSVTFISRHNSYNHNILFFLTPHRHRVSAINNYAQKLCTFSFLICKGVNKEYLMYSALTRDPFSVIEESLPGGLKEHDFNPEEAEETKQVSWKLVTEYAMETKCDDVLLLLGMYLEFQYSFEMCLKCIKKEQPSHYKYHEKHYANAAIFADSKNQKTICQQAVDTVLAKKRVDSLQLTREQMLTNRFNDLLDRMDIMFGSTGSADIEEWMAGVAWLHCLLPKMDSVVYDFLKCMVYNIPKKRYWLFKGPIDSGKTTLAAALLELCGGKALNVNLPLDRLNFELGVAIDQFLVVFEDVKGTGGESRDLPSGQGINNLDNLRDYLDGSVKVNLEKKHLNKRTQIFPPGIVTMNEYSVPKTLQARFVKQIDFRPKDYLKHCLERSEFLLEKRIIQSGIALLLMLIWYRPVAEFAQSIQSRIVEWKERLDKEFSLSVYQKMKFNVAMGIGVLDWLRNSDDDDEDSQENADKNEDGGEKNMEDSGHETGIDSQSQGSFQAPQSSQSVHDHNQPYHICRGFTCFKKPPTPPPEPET

`Cc1ccc(NC(=O)c2ccccc2NS(=O)(=O)c2ccc(F)cc2)cc1S(=O)(=O)N1CCCCC1`: the IC50 in assay [1] is 2.59 µM (active); in [3] it was 6.13 µM (active). Besides, the EC50 in assay [2] is 4.33 µM (active).
Regarding `C(=N\Nc1nc(-c2ccccc2)cs1)/c1cccs1`, the IC50 at Caspase-3 was 29.8 µM (active); in [4], 4.19 µM (active); in [5], 12.8 µM (active); in [6], 31.6 µM (active).
The like results for `COC(=O)c1sc(-c2ccc(Cl)cc2)cc1N` were, in that order, 17.7 µM (active), 2.96 µM (active), 4.35 µM (active) and 67.1 µM (active).
A word on the AC50: it is the concentration at which the activity in the assay is half-maximal. `O=C(Nc1ccc2c(c1)[C@@H]1C[C@H](CC(=O)N3CCc4ccccc4C3)O[C@@H](CO)[C@@H]1O2)c1ccc2c(c1)OCO2`: the AC50 in assay [7] was 134 µM (active).
Regarding `CCCSC(=N)N/N=C/c1cc(C)ccc1O`, the EC50 is 32.5 µM (active) in assay [8] and 30 µM (active) in [9]. Besides, the IC50 is 46.3 µM (active) on Caspase-3, 11.4 µM (active) in [4], 93.5 µM (active) in [5] and > 100 µM (inactive) in assay [6].
For `CCOc1cc(/C=N/NC(=O)CSc2cccc3cccnc23)ccc1O`, the IC50 on Large T antigen is 7.45 µM (active); in assay [10], 34.2 µM (active). In addition, the AC50 in assay [7] was 90 µM (active).
With `O=C(CCCCn1c(=O)c2ccccc2n(Cc2ccc(F)cc2Cl)c1=O)NCc1ccco1`, the IC50 was 19.4 µM (active) in assay [1] and > 20 µM (inactive) in assay [3]. Also, in assay [2], the EC50 is > 53 µM (inactive).
As to `O=C1S/C(=C\c2ccc(O)c([N+](=O)[O-])c2)C(=O)N1Cc1cccc([N+](=O)[O-])c1`, the EC50 with HEK293 [11] was 4.33 µM (active); in [14] it was 4.39 µM (active); in [2] it was > 53 µM (inactive). Also, the IC50 in the assay on HEK293 [12] is 7.53 µM (active); with HEK293 [13], 17.1 µM (active); with HEK293 [15], 5.79 µM (inactive); with HEK293 [16] it was > 20 µM (inactive); in assay [1] it was 4.71 µM (active); in assay [3], > 20 µM (inactive). Further, the IC50 is 3.83 µM (active) at Fatty acid synthase [17] and 3.73 µM (active) on Fatty acid synthase [18].

For the origin of these results see ChEMBL document CHEMBL1201862, “PubChem BioAssay data set” (2004).
